We go through 21 compounds from patent US20230095520A1, “PHARMACEUTICAL COMPOSITION FOR PREVENTING OR TREATING CANCER COMPRISING AZOLE DERIVATIVES OR PHARMACEUTICALLY ACCEPTABLE SALT THEREOF” (Yungjin Pharm. Co., Ltd., priority 2020, published 2023).

In experiment [1] the target is T1, Recombinant purified human CDK7 (Homo sapiens, UniProt P50613).
T1 construct: purchased ThermoFisher PV3868
As to the kind of experiment: CDK7 activity inhibition, ADP-Glo kinase assay. Type of experiment: biochemical. As to conditions: ATP 90 μM, MBP substrate, 2 hours 30° C. How it is done:
Recombinant purified human CDK7 (ThermoFisher, PV3868) and ADP Glo Kinase Assay Kit (Promega, V9102) were used. CDK7 was diluted with 1× kinase reaction buffer (40 mM Tris-Cl, pH 7.5, 20 mM MgCl2, 0.1 mg/ml BSA and 50 μM DTT) and added to a 96 well plate (CDK7 final concentration per reaction: 50 ng). It was finally treated with the compound of the present invention to a 1% DMSO aqueous solution, and a substrate cocktail containing ATP (final concentration of 90 μM) and 0.2 μg/μl MBP (myelin basic protein) in a total of 25 μl reaction mass was added to a 96 well plate, thereby initiating the enzymatic reaction. After 2 hours of incubation (30° C.), an equal volume (25 μl per reaction) of ADP Glo was added and incubated at room temperature for 60 minutes (30° C.). Thereafter, kinase detection reagent (50 μl per reaction) was added and incubated at room temperature for 30 minutes (30° C.). The kinase activity was measured by the chemiluminescence method according to the ADP Glo Kinase Assay Kit instruction manual, and the CDK7 inhibitory activity of the compounds of the present invention was calculated.
Background: In ADP-Glo the light output rises with the ADP produced.

The next experiment relates to MV-4-11 cells. As to the kind of experiment: MV-4-11 cell proliferation inhibition (CCK-8). Type of experiment: cell-based. As to conditions: Homo sapiens, 72 hours; for inhibition at 0.1 µM: MV4-11, MV-4-11, compound concentration 100 nM, read-out: Inhibition rate (%); for IC50: MV4-11, MV-4-11 proliferation. Here is the method:
MV-4-11 cells are one of the acute myeloid leukemia cells with a Fms-like tyrosine kinase (FLT3) gene mutation, and these cells are used to test inhibition of proliferation and survival of leukemia cells.
MV-4-11 cells cultured in a 96-well cell culture plate were treated with the compound of the present invention and cultured for 72 hours. Thereafter, the antiproliferative effect of the compound was assayed by the CCK-8 method using a tetrazolium salt.

T1 sequence (P50613 whole entry): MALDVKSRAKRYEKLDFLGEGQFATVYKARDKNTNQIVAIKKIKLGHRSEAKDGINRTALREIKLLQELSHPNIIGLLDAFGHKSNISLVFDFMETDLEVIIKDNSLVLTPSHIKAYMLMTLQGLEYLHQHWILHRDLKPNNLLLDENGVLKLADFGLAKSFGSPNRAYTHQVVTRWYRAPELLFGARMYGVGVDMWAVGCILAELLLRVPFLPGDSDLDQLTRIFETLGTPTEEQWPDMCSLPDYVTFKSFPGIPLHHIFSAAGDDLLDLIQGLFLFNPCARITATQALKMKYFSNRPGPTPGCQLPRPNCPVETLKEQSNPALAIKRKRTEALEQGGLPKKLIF
T1 sequence (P51946 whole entry partner): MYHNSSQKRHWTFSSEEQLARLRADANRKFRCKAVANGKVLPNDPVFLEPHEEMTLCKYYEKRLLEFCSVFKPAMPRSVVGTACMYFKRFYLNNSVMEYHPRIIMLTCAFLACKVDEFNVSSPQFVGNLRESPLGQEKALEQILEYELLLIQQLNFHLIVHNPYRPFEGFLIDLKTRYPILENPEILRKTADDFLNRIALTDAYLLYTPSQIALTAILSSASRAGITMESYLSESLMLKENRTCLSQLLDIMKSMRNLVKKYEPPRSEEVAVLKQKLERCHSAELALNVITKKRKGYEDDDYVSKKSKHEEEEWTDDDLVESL
T1 sequence (P51948 whole entry partner): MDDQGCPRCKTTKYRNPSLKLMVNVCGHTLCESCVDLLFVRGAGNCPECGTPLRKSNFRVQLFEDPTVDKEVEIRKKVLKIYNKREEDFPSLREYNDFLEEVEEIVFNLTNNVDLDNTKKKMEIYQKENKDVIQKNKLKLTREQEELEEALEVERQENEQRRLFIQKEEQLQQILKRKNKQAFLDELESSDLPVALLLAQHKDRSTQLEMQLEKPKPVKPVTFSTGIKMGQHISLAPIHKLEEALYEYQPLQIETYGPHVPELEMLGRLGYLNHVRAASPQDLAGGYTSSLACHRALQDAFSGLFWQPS

As to `COc1cc(-c2cccc([C@H](C)C(=O)Nc3ncc(C(F)(F)F)s3)c2)cnc1NC(=O)/C=C/CN(C)C` [Compound 100, (S,E)-4-(dimethylamino)-N-(3-methoxy-5-(3-(1-oxo-1-((5-(trifluoromethyl)thiazol-2-yl)amino)propan-2-yl)phenyl)pyridin-2-yl)but-2-enamide], the IC50 in experiment [1] was found to be 9.8 nM.

On to `C[C@H](C(=O)Nc1ncc(C(F)(F)F)s1)c1cccc(-c2cnc(NC(=O)/C=C/CN3CCCC3)cn2)c1` [Compound 102, (S,E)-N-(5-(3-(1-oxo-1-((5-(trifluoromethyl)thiazol-2-yl)amino)propan-2-yl)phenyl)pyrazin-2-yl)-4-(pyrrolidin-1-yl)but-2-enamide], for which, in experiment [1], the IC50 came to 13 nM.

Take `Cc1cc(-c2cccc([C@H](C)C(=O)Nc3ncc(C(F)(F)F)s3)c2)cnc1NC(=O)/C=C/CN(C)C` [Compound 112, (S,E)-4-(dimethylamino)-N-(3-methyl-5-(3-(1-oxo-1-((5-(trifluoromethyl)thiazol-2-yl)amino)propan-2-yl)phenyl)pyridin-2-yl)but-2-enamide]: in experiment [1], the IC50 turned out to be 17 nM.

For `C[C@H](C(=O)Nc1ncc(C(F)(F)F)s1)c1cccc(-c2cnc(NC(=O)/C=C/CN3CCN(C)CC3)cn2)c1` [Compound 95, (S,E)-4-(4-methylpiperazin-1-yl)-N-(5-(3-(1-oxo-1-((5-(trifluoromethyl)thiazol-2-yl)amino)propan-2-yl)phenyl)pyrazin-2-yl)but-2-enamide], the IC50 in experiment [1] was 80.4 nM.

For the compound `C[C@H](C(=O)Nc1ncc(C(F)(F)F)s1)c1cccc(-c2cnc3c(c2)CCN3C(=O)/C=C/CN(C)C)c1` [Compound 110, (S,E)-2-(3-(1-(4-(dimethylamino)but-2-enoyl)-2,3-dihydro-1H-pyrrolo[2,3-b]pyridin-5-yl)phenyl)-N-(5-(trifluoromethyl)thiazol-2-yl)propanamide], the IC50 in experiment [1] was determined as 5.9 nM.

With `CCc1cnc(NC(=O)[C@@H](C)c2cccc(-c3cnc(NC(=O)/C=C/CN4CCN(C)CC4)c(C#N)c3)c2)s1` [Compound 136, (S,E)-N-(3-cyano-5-(3-(1-((5-ethylthiazol-2-yl)amino)-1-oxopropan-2-yl)phenyl)pyridin-2-yl)-4-(4-methylpiperazin-1-yl)but-2-enamide], the IC50 in experiment [1] stood at 33 nM.

Regarding `C[C@H](C(=O)Nc1ncc(Cl)s1)c1cccc(-c2cnc(NC(=O)/C=C/CN3CCOCC3)cn2)c1` [Compound 98, (S,E)-N-(5-(3-(1-((5-chlorothiazol-2-yl)amino)-1-oxopropan-2-yl)phenyl)pyrazin-2-yl)-4-morpholinobut-2-enamide], the IC50 in experiment [1] amounted to 87 nM.

Regarding `COc1nc(-c2cccc([C@H](C)C(=O)Nc3ncc(C(F)(F)F)s3)c2)cnc1NC(=O)/C=C/CN(C)C` [Compound 109, (S,E)-4-(dimethylamino)-N-(3-methoxy-5-(3-(1-oxo-1-((5-(trifluoromethyl)thiazol-2-yl)amino)propan-2-yl)phenyl)pyrazin-2-yl)but-2-enamide], the IC50 in experiment [1] amounted to 8.2 nM.

In the case of `CCc1cnc(NC(=O)C2(c3cccc(-c4cnc(NC(=O)/C=C/CN(C)C)c(C#N)c4)c3)CC2)s1` [Compound 128, (E)-1-(3-(5-cyano-6-(4-(dimethylamino)but-2-enamido)pyridin-3-yl)phenyl)-N-(5-ethylthiazol-2-yl)cyclopropane-1-carboxamide], the IC50 in experiment [1] was determined as 50 nM.

For `CCc1cnc(NC(=O)C(CC)c2cccc(-c3cnc(NC(=O)/C=C/CN(C)C)c(C#N)c3)c2)s1` (stereo not shown) [Compound 138, (E)-N-(3-cyano-5-(3-(1-((5-ethylthiazol-2-yl)amino)-1-oxobutan-2-yl)phenyl)pyridin-2-yl)-4-(dimethylamino)but-2-enamide], in experiment [1], the IC50 stood at 8 nM.

Take `CCc1cnc(NC(=O)C(CC)c2cccc(-c3ccc(NC(=O)/C=C/CN(C)C)cn3)c2)s1` (stereo not shown) [Compound 131, (E)-4-(dimethylamino)-N-(6-(3-(1-((5-ethylthiazol-2-yl)amino)-1-oxobutan-2-yl)phenyl)pyridin-3-yl)but-2-enamide]: in experiment [1], the IC50 amounted to 59 nM.

Take `C[C@H](C(=O)Nc1ncc(C(F)(F)F)s1)c1cccc(-c2cnc(NC(=O)/C=C/CN3CC[C@H](F)C3)cn2)c1` [Compound 117, (E)-4-((S)-3-fluoropyrrolidin-1-yl)-N-(5-(3-((S)-1-oxo-1-((5-(trifluoromethyl)thiazol-2-yl)amino)propan-2-yl)phenyl)pyrazin-2-yl)but-2-enamide]: the IC50 in experiment [1] turned out to be 15.4 nM.

As for `C=CC(=O)Nc1ncc(-c2cccc([C@H](C)C(=O)Nc3ncc(C(F)(F)F)s3)c2)cc1C#N` [Compound 124, (S)-N-(3-cyano-5-(3-(1-oxo-1-((5-(trifluoromethyl)thiazol-2-yl)amino)propan-2-yl)phenyl)pyridin-2-yl)acrylamide], the IC50 in experiment [1] came to 4.5 nM.

Take `C[C@H](C(=O)Nc1ncc(C(F)(F)F)s1)c1cccc(-c2ccc(NC(=O)/C=C/CN(C)C)nc2)c1` [Compound 116, (S,E)-4-(dimethylamino)-N-(5-(3-(1-oxo-1-((5-(trifluoromethyl)thiazol-2-yl)amino)propan-2-yl)phenyl)pyridin-2-yl)but-2-enamide]: in experiment [1], the IC50 stood at 13.5 nM.

Turning to `C=CC(=O)Nc1ccc(-c2cccc(C(C)C(=O)Nc3ncc(C4CC4)s3)c2)cn1` (stereo not shown) [Compound 2, N-(5-(3-(1-((5-cyclopropylthiazol-2-yl)amino)-1-oxopropan-2-yl)phenyl)pyridin-2-yl)acrylamide], the IC50 in experiment [1] turned out to be 40 nM.

In the case of `C=CC(=O)Nc1ncc(-c2cccc([C@H](C)C(=O)Nc3ncc(C#N)s3)c2)cc1F` [Compound 33, (S)-N-(5-(3-(1-((5-cyanothiazol-2-yl)amino)-1-oxopropan-2-yl)phenyl)-3-fluoropyridin-2-yl)acrylamide], the inhibition at 0.1 µM in the experiment with MV-4-11 cells is 100%.

In the experiment with MV-4-11 cells, `C=CC(=O)Nc1ccc(-c2csc(C(C)C(=O)Nc3ncc(CC)s3)c2)cn1` (stereo not shown) [Compound 77, N-(5-(5-(1-((5-ethylthiazol-2-yl)amino)-1-oxopropan-2-yl)thiophen-3-yl)pyridin-2-yl)acrylamide] returned an IC50 of 16.7 nM.

`C=CC(=O)Nc1ncc(-c2cccc([C@H](C)C(=O)Nc3ncc(C#N)s3)c2)nc1C` [Compound 34, (S)-N-(5-(3-(1-((5-cyanothiazol-2-yl)amino)-1-oxopropan-2-yl)phenyl)-3-methylpyrazin-2-yl)acrylamide]: the inhibition at 0.1 µM with MV-4-11 cells amounted to 80%.

`C=CC(=O)Nc1ccc(-c2cccc(C(C)C(=O)Nc3ncc(CC)s3)c2)cn1` (stereo not shown) [Compound 4, N-(5-(3-(1-((5-ethylthiazol-2-yl)amino)-1-oxopropan-2-yl)phenyl)pyridin-2yl)acrylamide]: in the experiment on MV-4-11 cells, the inhibition at 0.1 µM was 100% and it took 50.8 nM to reach half-maximal inhibition (IC50).

Consider `CCc1cnc(NC(=O)[C@@H](C)c2cccc(-c3ccc(NC(=O)/C=C/CN(C)C)nc3)c2)s1` [Compound 17, (S,E)-4-(dimethylamino)-N-(5-(3-(1-((5-ethylthiazol-2-yl)amino)-1-oxopropan-2-yl)phenyl)pyridin-2-yl)but-2-enamide], for which the inhibition at 0.1 µM in the experiment on MV-4-11 cells turned out to be 100%.

As for `C[C@H](C(=O)Nc1ncc(C#N)s1)c1cccc(-c2ccc(NC(=O)/C=C/CN(C)C)nc2)c1` [Compound 21, (S,E)-N-(5-(3-(1-((5-cyanothiazol-2-yl)amino)-1-oxopropan-2-yl)phenyl)pyridin-2-yl)-4-(dimethylamino)but-2-enamide], in the experiment with MV-4-11 cells, the inhibition at 0.1 µM came out at 84%.

As usually defined, the IC50 is the concentration that gives 50% inhibition. As a reminder, the inhibition is the change of the read-out against control, counted positive when it falls.
